The values below come from a melting point compilation (Tetko et al.; mined from patent text by program, amines drawn as free bases though some values may be those of a salt).

What is called melting point is the temperature of the solid-liquid transition.

`NS(=O)(=O)c1c(Cl)ccc(NC(=O)Nc2cccc(Cl)c2Cl)c1O` yielded a melting point of 241 to 242 °C. The molecule `CCCc1cnn2c(O)cc(CC)nc12` showed a melting point of 279 to 281 °C. The molecule `O=S1(=O)C=Cc2cc(Br)ccc2O1` came in with a melting point of 140 to 142 °C.

For the molecule `O=CNn1cc(C(=O)O)c(=O)c2cc3c(cc21)OCO3`, the melting point was 302 °C.

For the molecule `CCN(CC)C(=O)NC(C)(CC)N=NC(C)(CC)NC(=O)N(CC)CC` (stereo not given), the melting point fell in the range of 215 to 220 °C. `COc1cc2c3ccc(OC)c(OC)c3n(Cc3ccccc3)c2cc1OC` displayed a melting point of 174 to 175 °C. Turning to `COc1ccc(CN2C(=O)C(O)(c3cc(CN(C)C)ccc3OC)c3cc(Cl)ccc32)c(OC)c1` (stereo not given), the melting point stood at 189 °C. The same measure for `N#CCc1ccccc1NC(=O)C(F)(F)C(F)(F)C(F)(F)F`: 76 to 79 °C. `CCc1[nH]n(C2CCCC2)c2nc(-c3ccc4c(c3)CC(C)O4)nc(=O)c1-2` (stereo not given): the melting point was 164 to 165 °C. The same measure for `CCCCc1nc2c(N)nc3cccnc3c2n1CCOc1ccccc1`: 159 °C; for `Oc1ccc(Oc2ccc(I)cc2)cc1`: 119 to 121 °C.

Take `CCOC(=O)c1c(-c2ccncc2)[nH]c(-c2ccncc2)c1-c1ccc([N+](=O)[O-])cc1`: the melting point is 274 to 276 °C. As to `CN1CC(C(=O)N(C)Cc2ccc(Cl)c(Cl)c2)=C(O)C1=O`, the melting point lay within 148 to 150 °C. For the molecule `CCN(Cc1ccccc1)c1ccc(C2OC(=O)c3cc(N(C)C)ccc32)cc1` (stereo not given), the melting point lay in the range of 123 to 125 °C. In turn, `CC1CN(c2cc3c(cc2F)C(=O)c2nc4ccccc4c(=O)n2-3)CCN1C(=O)OC(C)(C)C` (stereo not given) showed a melting point of 234 to 237 °C. `OCCCc1cnoc1-c1ccc(Cl)cc1` had a melting point of 58 to 59 °C. In turn, `CCOC(=O)c1cc2c3ccccc3n(Cc3ccccc3)c2c(C)n1` displayed a melting point of 155 to 156 °C. For `CS(=O)(=O)c1ccc(-n2nc(C(F)(F)F)nc2-c2ccc(Br)cc2)cn1`, the melting point lay within 141 to 143 °C. For the molecule `Cc1oc(-c2ccco2)nc1COc1ccc(CC(=O)O)cc1`, the melting point is 139 to 140 °C. In turn, `N#Cc1ccc(Nn2cnnc2)cc1Br` gave a melting point of 234 to 236 °C. Consider `CCOC(=O)c1cn(C(C)F)c2cc(-n3cccc3)c(F)cc2c1=O` (stereo not given), for which the melting point lay in the range of 231 to 234 °C.

`Cn1ccc2c(ccc3[nH]cc(CCNCc4ccccc4)c32)c1=O` displayed a melting point of 186 to 192 °C. As for `C[C@H](OC(=O)Oc1ccc([N+](=O)[O-])cc1)C(=O)N[C@@H]1C(=O)Nc2c(F)cccc2O[C@@H]1C`, the melting point is 140 to 145 °C.

Molecule `OC(CCc1ccccc1)c1cc2ccncc2[nH]1` (stereo not given) registered a melting point of 162 to 166 °C.

Molecule `O=C1OCCN1CCCN1C(=O)N2C[C@@H](Cc3ccccc3)N=C2c2[nH]c(C3CCCC3)nc21` displayed a melting point of 210 to 212 °C. `CC1(C)[C@@H](Cn2nccn2)CC[C@@]1(C)NCC(=O)N1C[C@@H](F)C[C@H]1C#N` registered a melting point of 84 to 87 °C. The molecule `CCOC(=O)c1cn2c3c(cc(C)cc3c1=O)OCC2C` (stereo not given) returned a melting point of 195 to 197 °C. Molecule `O=Cc1csc(N2CCSCC2)n1` gave a melting point of 69 to 71 °C. `O=C(c1ccc(CCl)cc1)N1CCCCC1` came in with a melting point of 106 to 108 °C. Consider `O=C(O)c1cn(CCCc2ccccc2)c2cc(C3CC3)nn2c1=O`, for which the melting point lay in the range of 95 to 100 °C. On to `O=C1CCC(C(=O)O)(c2ccc(F)cc2)CC1`, for which the melting point is 117 to 122 °C. As for `O=c1[nH]c(=O)n(CCCCN2CC=C(c3ccccc3)CC2)c2cc([N+](=O)[O-])ccc12`, the melting point was 242 to 244 °C.

With `CC(=O)NC1Cc2ccc(NC(=O)c3ccccc3Br)cc2C1` (stereo not given), the melting point was in the range of 216 to 217 °C.

`CC(C)c1c(-c2ccncc2)[nH]c2ccc(C3=NNC(=O)CC3)cc12` registered a melting point of over 300 °C. The molecule `CC(C)(C)OC(=O)N1CCN(C(=O)CCc2cccnc2)CC1` returned a melting point of 125 to 126 °C. Molecule `O=[N+]([O-])c1ccc(S(=O)(=O)Nc2ccccc2)cc1` registered a melting point of 154 to 156 °C. In turn, `CC(=O)NC1CCN(c2cccc(Sc3ccccc3)n2)CC1` came in with a melting point of 110 to 112 °C. The same measure for `O=C1Cc2ccc([N+](=O)[O-])cc21`: 126 to 127 °C; for `Cc1cccc(C(=O)NN=Cc2cccc(Cl)c2O)c1`: 166 to 169 °C. In turn, `Cc1ccc2c(c1)c1cc(Br)ccc1n2C(=O)OC(C)(C)C` registered a melting point of 96 °C.

The molecule `CCCNc1c(NCCCOc2cccc(CN3CCCCC3)c2)c(=O)c1=O` yielded a melting point of 158 to 160 °C.

Molecule `CCOc1ccc(N)nc1C` registered a melting point of 93 to 96 °C. Then `COC(=O)[C@@H](NC(=O)Nc1n[nH]c(=S)s1)[C@@H](C)OCc1ccccc1`, with 88 to 90 °C; and `COc1cccc(CCCCCCOc2ccc(C(=O)O)c(O)c2)c1OC`, with 115 to 116 °C. `O=C1Nc2c(ccc3c2CCCC3)SC1CCCN1CCN(c2ccc(F)cc2)CC1` (stereo not given) registered a melting point of 145 to 147 °C. The same measure for `COc1ccc(-c2c(/C=C/C(=O)Oc3ccc([N+](=O)[O-])cc3)ccc3cc(OC)ccc23)cc1`: 160 to 161 °C; for `CCNC(=O)c1ccc(N2CCN(Cc3cc(C)c4c(c3)NC(=O)C(C)O4)CC2)c(C)c1` (stereo not given): 223 to 230 °C; for `CCOc1ccc2c(c1)n(C13CC4CC(CC(C4)C1)C3)c(=O)n2S(=O)(=O)c1ccc(NC(=O)N(CC)CC)cc1OC`: 221 °C. The same measure for `CNC(=O)C(Cc1ccc([N+](=O)[O-])cc1)NC(=O)Nc1n[nH]c(=S)s1` (stereo not given): 228 to 230 °C. As to `Cc1cc(-c2cncc(OC3SCC(O)C(O)C3O)c2)ccn1` (stereo not given), the melting point amounted to 120 °C. Turning to `O=CCCCCC(=O)Nc1ccc(C(F)(F)F)cc1`, the melting point was 130 to 131 °C. Then `CN(CCCCCCNC(=O)NCCSCc1csc(NC(=N)N)n1)CCN(Cc1ccc(F)cc1)c1ccccn1`, with 95 °C; and `CNC(=O)N1c2ccccc2CC1C` (stereo not given), with 158 to 160 °C. As for `Cc1cc(I)ccc1Nc1c(-c2nnc(N)o2)ccc(F)c1F`, the melting point is 184 °C. As for `CC(C)(C)NC(=O)Nc1nc2nc(S(C)(=O)=O)ncc2cc1-c1c(Cl)cccc1Cl`, the melting point lay within 138 to 140 °C. Regarding `COc1cccc(C23CCN(C)CC2Cc2c([nH]c(C(=O)NCc4ccccc4)c2C)C3)c1` (stereo not given), the melting point was in the range of 162 to 164 °C.

On to `Cc1ccc(C=C(C#N)S(=O)(=O)c2ccccc2)cc1`, for which the melting point is 145 to 147 °C.

Consider `Cn1c(C(=O)NCCCn2ccnc2)cc2ccccc21`, for which the melting point lay within 125 to 129 °C. Molecule `Cc1cc(CCCCCCCOc2ccc(C3=NCCN3)cc2)on1` showed a melting point of 118 to 119 °C. As to `CC(=O)Nc1ccc(F)c(-c2ccccn2)c1F`, the melting point lay in the range of 132 to 133 °C. The same measure for `Cc1cc(CO)c(C(=O)O)c(S)n1`: over 270 °C. As for `c1ccc(Sc2c(CCc3nc4ccccc4o3)[nH]c3ccccc23)cc1`, the melting point lay within 192 to 193 °C. The same measure for `COc1ccc(CNc2n[nH]cc2C)cc1OC1CCCC1`: 76 to 77 °C; for `O=C(NN1CCNC1=O)c1cc(=O)c(O)c[nH]1`: 270 to 275 °C.

`CCSc1nc(Cl)c2sc3nc(-c4ccccc4)cc(C)c3c2n1` came in with a melting point of 150 to 154 °C. As to `O=C1c2ccccc2C(=O)N1CC(=O)N1c2ccccc2N(Cc2ccccc2)C(=O)C(Cc2ccccc2)C1c1ccccc1` (stereo not given), the melting point is 255 to 256 °C. Then `OCn1cc(-c2cc3nccnc3[nH]2)c2ccccc21`, with over 320 °C. In turn, `C=CCN(CC=C)c1ccc2[nH]c3cnc(-c4nc(CC)no4)nc3c2c1` showed a melting point of 175 to 184 °C. `CC(=O)Oc1ccc(C=C2CCCc3cc(C)cnc32)cc1` registered a melting point of 119 to 122 °C. In turn, `Cc1nn(C(=O)NC(C)(C)CCc2ccccc2)c(=O)n1N` had a melting point of 87 °C.

Molecule `CCN(CC)CCNC(=O)c1cc(Cl)c(N)cc1OCCO` returned a melting point of 144 to 146 °C.

On to `CC(C)(CO)CCCCCC(O)CCCCC(C)(C)CO` (stereo not given), for which the melting point fell in the range of 79 to 80 °C.

As to `CC(=O)SCC(C(=O)NC(Cc1ccc(O)c(O)c1)C(=O)O)C(F)(F)F` (stereo not given), the melting point lay in the range of 175 to 184 °C. `COC(=O)Nc1ccc(OCc2nc3ccc(OC)cc3s2)cc1C` showed a melting point of 123 to 125 °C. Take `CC(=O)Oc1cc(Cl)ccc1C1(OC(C)=O)C(=O)c2ccccc2C1=O`: the melting point was in the range of 148 to 150 °C. Then `CCCOc1ccccc1CN1N=C(CCC)C(=CNc2ccccc2CC)C1=O`, with 75.2 °C; and `CN(Cc1cc(C(F)(F)F)cc(C(F)(F)F)c1)C(=O)c1ncc2ccccc2c1-c1ccc(F)cc1`, with 134 to 135 °C; and `COc1ccccc1COc1ccc(S(=O)(=O)c2ccc(C)nc2Br)cc1`, with 76 to 78 °C. The same measure for `CN(C)c1c(S(=O)C(F)(F)F)c(C#N)nn1-c1c(Cl)cc(C(F)(F)F)cc1Cl` (stereo not given): 154 to 161 °C; for `CCCCOC1C=CC(=O)N1S(=O)(=O)c1cccc(C(F)(F)F)c1` (stereo not given): 42 to 43 °C. In turn, `CCON=Cc1cc(-n2c(=O)cc(C(F)(F)F)[nH]c2=O)c(Cl)cc1Cl` gave a melting point of 205 to 209 °C. Consider `Cc1cccc(C)c1CNc1cc(C(=O)N(C)C)nc2c(C)c(C)[nH]c12`, for which the melting point turned out to be 315 °C.

Regarding `OC1CCCc2nc3ccccc3c(NCc3ccccc3)c21` (stereo not given), the melting point amounted to 159 °C. As to `COC(=O)C(C#N)=C(Nc1cccnc1)SC`, the melting point is over 260 °C. In turn, `CC(C)(C)OC(=O)C(Nc1ccccc1)c1cccc(Cl)c1` (racemic) returned a melting point of 96 °C.

`COc1ccc(C2CNC(=O)C2)cc1Br` (stereo not given): the melting point lay within 151 to 154 °C. The same measure for `CCCCCCCCCCCCCCCCCC1OCC(COC(O)CCCCC=O)O1` (stereo not given): 53.6 to 55.7 °C; for `COC(=O)c1cc(Cl)cc2c1OC(C)C(=O)N2C` (stereo not given): 128 to 130 °C. On to `c1ccc2cc3sccc3cc2c1`, for which the melting point was in the range of 193 to 194 °C.

The molecule `CC(=O)Nc1ccc2c(c1)NCC(CN(C)C)C2` (stereo not given) registered a melting point of 118 to 123 °C.
